Experimental data published in patent US20240368164A1, “PURINE NUCLEOSIDES, THEIR INTERMEDIATES, AND METHODS OF PREPARATION THEREOF” (Astrocyle Pharmaceuticals, Inc., priority 2021, published 2024).

Tests used:
[1] = Nonspecific brain tissue binding (free fraction); type: in vitro ADME, mouse; conditions: brain tissue
Description: (§1) Example 3 of U.S. Pat. No. 9,789,131, which is incorporated herein by reference, describes assays for determining the plasma and brain free fraction of certain compounds such as I-1. Compounds described herein may be evaluated using such assays or similar variants thereof.

[2] = Plasma protein binding (free fraction); type: in vitro ADME, mouse
Description: as §1

[3] = system: photothrombosis-induced stroke in mice; test: Mouse photothrombotic stroke model; type: in vivo; conditions: mouse, stroke
Procedure: Photothrombosis-induced Stroke: Photothrombosis is performed as described in Zheng et al 2010 (PloS One 5 (12): e14401). In brief, Rose Bengal is a fluorescent dye that when injected into the vasculature and excited, generates singlet oxygen that damages the endothelial wall and induces a local thrombosis (clot). Using this technique, mice are given a 0.1 mL tail-vein injection of sterilized Rose Bengal (RB, Sigma, U.S.A.) in artificial cerebral spinal fluid (aCSF). The RB concentration is 20 mg/mL. A cortical region is centered in the imaging field and illuminated with a green laser (543 nm, 5 mW) using a 0.8-NA 40× water-immersion objective (Nikon, Tokyo). The clot formation is monitored in real time until the targeted vessel or downstream capillaries are firmly occluded. Stable clots are subsequently identified by a non-fluorescent vessel segmentation ending with highly fluorescent regions. […] Treatments, at doses such as 0.5 μmol/kg are introduced via intraperitoneal injections (i.p.). For experiments with A3 receptor antagonist MRS1523, mice are administered intraperitoneal injections (2 mg/kg) at the 0 and 2 hour timepoints to ensure receptor antagonism throughout the course of the study.
Animals and Photothrombosis-induced Stroke: Stroke is performed as described in Zheng et al 2010 (PloS One 5 (12): e14401). Female C57Bl/6 mice (4-6 months) are used in this study. From the methods of this manuscript: Mice are anesthetized at 3% isoflurane with 100% oxygen and subsequently maintained at 1% isoflurane through a nosecone. Depth of anesthesia is monitored and regulated according to vital signs, pinch withdrawal and eye blinks. Body temperature is maintained at 37° C. by a feedback-controlled heating pad (Gaymar T/Pump). Vital signs including oxygen saturation, respiratory rate, and heart rate are continuously monitored by using the MouseOx system (STARR Life Sciences). […]
Post photothrombotic infarction evaluation. The size of cerebral infarcts is evaluated using 2,3,5-Triphenyltetrazolium chloride (TTC) staining as described in Zheng et al 2010 (PloS One 5 (12): e14401). […]

[4] = system: traumatic brain injury (TBI) in mice; test: Mouse traumatic brain injury (TBI) model; type: in vivo
Procedure: Animals and traumatic brain injury (TBI): TBI is performed with a controlled closed skull injury model as described in Talley-Watts et al. 2012 (J. Neurotrauma 30, 55-66). Following the method described therein, a pneumatic impact device is used to generate a moderate TBI leaving the skull and dura matter intact. To achieve this, C57BL/6 mice are anesthetized with isoflurane (3% induction, 1% maintenance) in 100% oxygen. A body temperature of 37° C. is maintained using a temperature-controlled heated surgical table. A small midline incision is made on the scalp using aseptic surgical techniques. A 5 mm stainless steel disc is positioned on the skull and fixed using superglue on the right parietal bone between bregma and lamda over the somatosensory cortex. The mouse is then positioned on a stage directly under the pneumatic impact tip. […] Mice are placed in a Thermo-Intensive Care Unit (Braintree Scientific model FV-1; 37° C.; 27% O2) and monitored until fully awake and moving freely. […]
Western Blot Analysis for GFAP: At selected survival times, mice are anesthetized under isoflurane and sacrificed. […] The homogenate is transferred to a 2 mL tube and centrifuged at 1000 g for 10 minutes at 4° C. and the supernatant is collected and analyzed. Protein concentration is determined by the BCA assay using a 1:50 dilution. […]

Human A3R = biological target: T1, Human A3R (Homo sapiens, UniProt P0DMS8); test: Radioligand binding at human A3 adenosine receptor ([125I]I-AB-MECA, CHO cell membranes); conditions: n = 1; read-out: Affinity (nM) at Human A3R
T1 construct: expressed in transfected cells
T1 sequence (P0DMS8 1-318): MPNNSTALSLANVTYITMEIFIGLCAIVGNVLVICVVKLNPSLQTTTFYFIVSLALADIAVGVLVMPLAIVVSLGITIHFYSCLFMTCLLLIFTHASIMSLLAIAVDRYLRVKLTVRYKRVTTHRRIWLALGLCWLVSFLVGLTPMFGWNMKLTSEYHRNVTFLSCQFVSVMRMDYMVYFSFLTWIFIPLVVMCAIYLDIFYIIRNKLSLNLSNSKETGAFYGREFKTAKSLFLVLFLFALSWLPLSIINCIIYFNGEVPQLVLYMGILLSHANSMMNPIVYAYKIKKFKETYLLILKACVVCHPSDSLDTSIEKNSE
Procedure: [3H]R—N^6-Phenylisopropyladenosine ([3H]R-PIA, 63 Ci/mmol), [^3H](2-[p-(2-carboxyethyl)phenyl-ethylamino]-5′-N-ethylcarboxamido-adenosine) ([^3H]CGS21680, 40.5 Ci/mmol) and [^125I]N^6-(4-amino-3-iodobenzyl)adenosine-5′-N-methyluronamide ([^125I]I-AB-MECA, 2200 Ci/mmol) were purchased from Perkin-Elmer Life and Analytical Science (Boston, MA). Test compounds were prepared as 5 mM stock solutions in DMSO and stored frozen.
Cell Culture and Membrane Preparation—CHO cells stably expressing the recombinant hA1 and hA3ARs and HEK293 cells stably expressing the hA2AAR were cultured in Dulbecco's modified Eagle medium (DMEM) and F12 (1:1) supplemented with 10% fetal bovine serum, 100 units/mL penicillin, 100 μg/mL streptomycin, and 2 μmol/mL glutamine. In addition, 800 μg/mL geneticin was added to the A2A media, while 500 μg/mL hygromycin was added to the A1 and A3 media. After harvesting, cells were homogenized and suspended in PBS. Cells were then centrifuged at 240 g for 5 min, and the pellet was resuspended in 50 mM Tris-HCl buffer (pH 7.5) containing 10 mM MgCl2. The suspension was homogenized and was then ultra-centrifuged at 14,330 g for 30 min at 4° C. The resultant pellets were resuspended in Tris buffer, incubated with adenosine deaminase (3 units/mL) for 30 min at 37° C. The suspension was homogenized with an electric homogenizer for 10 sec, pipetted into 1 mL vials and then stored at −80° C. until the binding experiments. The protein concentration was measured using the BCA Protein Assay Kit from Pierce Biotechnology, Inc. (Rockford, IL).
Binding assays: Into each tube in the binding assay was added 50 μL of increasing concentrations of the test ligand in Tris-HCl buffer (50 mM, pH 7.5) containing 10 mM MgCl2, 50 μL of the appropriate agonist radioligand, and finally 100 μL of membrane suspension. For the A1AR (22 μg of protein/tube) the radioligand used was [^3H]R-PIA (final concentration of 3.5 nM). For the A2AAR (20 μg/tube) the radioligand used was [^3H]CGS21680 (10 nM). For the A3AR ([…]) the radioligand used was [^125I]I-AB-MECA (0.34 nM). Nonspecific binding was determined using a final concentration of 10 μM NECA diluted with the buffer. The mixtures were incubated at 25° C. for 60 min in a shaking water bath. Binding reactions were terminated by filtration through Brandel GF/B filters under a reduced pressure using a M-24 cell harvester (Brandel, Gaithersburg, MD). Filters were washed three times with 3 mL of 50 mM ice-cold Tris-HCl buffer (pH 7.5). Filters for A1 and A2AAR binding were placed in scintillation vials containing 5 mL of Hydrofluor scintillation buffer and counted using a Perkin Elmer Liquid Scintillation Analyzer (Tri-Carb 2810TR). Filters for A3AR binding were counted using a Packard Cobra II T-counter. The Ki values were determined using GraphPad Prism for all assays.
A3R binding of selected compounds. Using methods described herein, the affinity of selected compounds at the A3 receptor was measured.

P2Y1R = P2Y1R (Homo sapiens, UniProt P47900); conditions: reference 6; cited from earlier work
P2Y1R, sequence (P47900 whole entry): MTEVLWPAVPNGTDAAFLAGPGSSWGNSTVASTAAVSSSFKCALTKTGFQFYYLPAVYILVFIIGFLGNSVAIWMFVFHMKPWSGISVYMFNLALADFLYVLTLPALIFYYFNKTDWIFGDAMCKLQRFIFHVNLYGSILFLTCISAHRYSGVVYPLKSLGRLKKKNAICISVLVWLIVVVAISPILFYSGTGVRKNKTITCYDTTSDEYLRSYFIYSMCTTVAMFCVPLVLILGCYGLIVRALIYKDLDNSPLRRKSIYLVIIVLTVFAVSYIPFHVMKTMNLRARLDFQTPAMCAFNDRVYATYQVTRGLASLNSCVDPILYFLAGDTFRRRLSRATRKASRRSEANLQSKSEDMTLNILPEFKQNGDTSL

A3AR = biological target: T2, A3AR (Homo sapiens, UniProt P0DMS8); conditions: reference 5; cited from earlier work
T2 sequence (P0DMS8 1-318): T1 sequence (P0DMS8 1-318)

| Structure (SMILES) | Ki (Human A3R) [nM] | other results |
| --- | --- | --- |
| CNC(=O)[C@H]1O[C@@H](n2cnc3c(NCc4cccc(I)c4)nc(Cl)nc32)[C@H](O)[C@@H]1O [Cl-IB-MECA, reference compound] |  | free (unbound) fraction in brain [1]: 0.002; free (unbound) fraction in plasma [2]: 0.002; efficacy in mouse photothrombotic stroke model [3]: inactive; efficacy in mouse TBI model [4]: weakly active |
| CCSc1nc(N)c2ncn([C@H]3[C@H](O)[C@H](O)[C@]4(CO)C[C@H]34)c2n1 [Compound I-2, (1R,2R,3S,4R,5S)-4-(6-Amino-2-(ethylthio)-9H-purin-9-yl)-1-(hydroxymethyl)bicyclo[3.1.0]hexane-2,3-diol] | 909 |  |
| CCCCCCSc1nc(N)c2ncn([C@H]3[C@H](O)[C@H](O)[C@]4(CO)C[C@H]34)c2n1 [Compound I-3, (1R,2R,3S,4R,5S)-4-(6-Amino-2-(hexylthio)-9H-purin-9-yl)-1-(hydroxymethyl)bicyclo[3.1.0]hexane-2,3-diol] | 504 |  |
| Nc1nc(SC2CCCCC2)nc2c1ncn2[C@H]1[C@H](O)[C@H](O)[C@]2(CO)C[C@H]12 [Compound I-4, (1R,2R,3S,4R,5S)-4-(6-Amino-2-(cyclohexylthio)-9H-purin-9-yl)-1-(hydroxymethyl)bicyclo[3.1.0]hexane-2,3-diol] | 1170 |  |
| Nc1nc(SCc2ccccc2)nc2c1ncn2[C@H]1[C@H](O)[C@H](O)[C@]2(CO)C[C@H]12 [Compound I-5, (1R,2R,3S,4R,5S)-4-(6-Amino-2-(benzylthio)-9H-purin-9-yl)-1-(hydroxymethyl)bicyclo[3.1.0]hexane-2,3-diol] | 55 |  |
| Nc1nc(SCCc2ccccc2)nc2c1ncn2[C@H]1[C@H](O)[C@H](O)[C@]2(CO)C[C@H]12 [Compound I-6, (1R,2R,3S,4R,5S)-4-(6-Amino-2-(phenethylthio)-9H-purin-9-yl)-1-(hydroxymethyl)bicyclo[3.1.0]hexane-2,3-diol] | 379 |  |
| COc1nc(N)c2ncn([C@H]3[C@H](O)[C@H](O)[C@]4(CO)C[C@H]34)c2n1 [Compound I-7, (1R,2R,3S,4R,5S)-4-(6-Amino-2-methoxy-9H-purin-9-yl)-1-(hydroxymethyl)bicyclo[3.1.0]hexane-2,3-diol] | 1050 |  |
| CSc1nc(N)c2ncn([C@H]3C(O)[C@@H](O)[C@]4(COP(=O)(O)OP(=O)(O)O)C[C@H]34)c2n1 (stereo partly drawn) [MRS2365] |  | Ki (P2Y1R): 0.4 nM |
| CNC(=O)[C@@]12C[C@@H]1[C@@H](n1cnc3c(NCc4cccc(Cl)c4)nc(SC)nc31)C(O)[C@H]2O (stereo partly drawn) [MRS3611] |  | Ki (A3AR): 1.5 nM |
